{"source": "patent US20260294885A1", "about": "“TREATMENT OF INFLAMMATORY CONDITIONS COMPRISING IMU-856” (IMMUNIC AG, priority 2023, published 2026)", "key": {"SIRT6": {"biological_target": "SIRT6 (Homo sapiens, UniProt Q8N6T7)", "sequence (Q8N6T7 whole entry)": "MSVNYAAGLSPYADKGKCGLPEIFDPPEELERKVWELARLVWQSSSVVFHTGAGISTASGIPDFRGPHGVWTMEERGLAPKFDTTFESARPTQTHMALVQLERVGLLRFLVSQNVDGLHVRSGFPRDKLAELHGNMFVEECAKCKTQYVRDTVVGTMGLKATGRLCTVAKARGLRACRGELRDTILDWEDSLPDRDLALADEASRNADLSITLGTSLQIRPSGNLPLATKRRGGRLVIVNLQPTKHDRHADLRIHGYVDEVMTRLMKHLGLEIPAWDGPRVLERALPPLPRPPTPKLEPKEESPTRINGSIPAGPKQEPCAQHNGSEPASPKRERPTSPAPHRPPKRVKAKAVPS", "assay": "SIRT6 deacetylation of acetylated H3K56 in a cellular system", "assay_type": "cell-based"}, "[1]": {"system": "colorectal adenocarcinoma-2 (Caco-2) cells", "assay": "TEER recovery across a Caco-2 monolayer following inflammation with TNF-α or IL-6", "assay_type": "cell-based, human", "source_text": "(§1) In one TEER model, tight junction (TJ)-related proteins were investigated, and a normalisation of TJ proteins (claudin (Cldn)-1 and claudin-2) was observed.\nCaCo2 cell line is derived from human epithelial cells from the colon. They are frequently used to mimic intestinal barrier function to either look at permeability of drugs or to look at is functional resistance. For the present experiment, the CaCo2 cells were used to mimic the […] LEFT OUT] and investigate the effect of IMU-856 on this by measuring the electrical transepithelial resistance (TEER). […] For this CaCo2 cells, cultivated in a 6-well trans well plate on top of the membrane that has small pores that prevent the cells from going through but allow molecules and nutrients to pass. […] Then, cells were washed and fresh medium with vehicle or IMU-856 was given. TEER was measured before and after challenge at different time points. For correct measurement, the shorter electrode is inserted into the transwell chamber (without touching the cells), and the longer electrode is inserted in the outer well."}, "claudin (Cldn)-1": {"system": "claudin (Cldn)-1", "assay": "Tight junction protein claudin-1 in a TEER model", "assay_type": "cell-based, human", "source_text": "as §1"}, "[2]": {"system": "healthy subjects and patients with CelD", "assay": "Clinical safety, whole study", "assay_type": "in vivo, human", "description": "(§2) In Part A, healthy subjects were randomised to single ascending doses of IMU-856 (10 mg to 160 mg) or placebo. In Part B healthy subjects were randomised to multiple once-daily doses of IMU-856 (40, 80, and 160 mg) or placebo for 14 days. Part C randomised patients with celiac disease who were on a gluten-free diet to multiple once-daily doses of IMU-856 (80 mg and 160 mg) or placebo for 28 days; a once-daily gluten challenge (6 g) was introduced on Day 14 and ended on Day 28. 71 healthy subjects were enrolled in Part A and B (N=19 placebo and N=52 IMU-856) and 43 patients with CelD in Part C (N=14 placebo; N=14 for 80 mg, and N=15 for 160 mg). In Parts A and B, treatment-emergent adverse events (TEAEs) occurred in 24 (73%) and 15 (79%) of subjects receiving any dose of IMU-856 compared to 6 (50%) and 5 (71%) with placebo, respectively. […] In Part C, the most common adverse events with any dose of IMU-856 by preferred term were headache (13 [45%]), nausea (9 [31%]), diarrhoea (8 [28%]), and abdominal distension (7 [24%]). […] In Part C, the mean change in villous height from baseline to Day 29 with 80 mg and 160 mg was −20.9±34.8 μm, and −22.5±51.1 μm, respectively, and −60.3±52.2 μm with placebo. […] Mean change in plasma citrulline increased with 80 mg and 160 mg from baseline to Day 14 (2.4±6.2 and 6.1±5.9 μmol/L, respectively) and from baseline to Day 29 (2.8±7.6 and 2.2±5.3 μmol/L, respectively), but not with placebo (−2.7±5.6 and −4.0±6.5 μmol/L). […] Mean increase in zinc levels from baseline to Day 29 with 80 mg and 160 mg were 0.3±1.4 and 0.9±2.1 μmol/L compared to a mean decrease in placebo (−0.9±2.1 μmol/L). Gluten-induced symptoms were also attenuated by IMU-856."}, "plasma citrulline": {"system": "plasma citrulline", "assay": "Plasma citrulline, Part C", "assay_type": "in vivo, human", "description": "as §2\nAlso, biomarker response upon treatment of CelD with IMU-856 was assessed. […] A wide inter-individual range of IL-2 response leads to large SD, especially in the placebo group. […]"}, "[3]": {"system": "patients with celiac disease", "assay": "Patient-reported symptoms with gluten challenge (Celiac Disease Symptom Diary), Part C", "assay_type": "in vivo, human", "parameters": "key to mean change in bloating / mean change in tiredness: change on 5-point severity scale (1=none to 5=very severe)", "details": "for mean change in abdominal pain (SD) / mean change in diarrhea (SD) / mean change in nausea (SD): last day before to first day of gluten challenge, CDSD 5-point scale", "source_text": "In an embodiment, the celiac disease patient is experiencing one or more symptoms as assessed by the CDSD Version 2.1® (ImmunogenX LLC) at the start of treatment with IMU-856 or a pharmaceutically acceptable salt or a solvate thereof. The CDSD questionnaire was developed to assess symptom severity in clinical trials in subjects with celiac disease. The CDSD includes five symptoms (diarrhea, abdominal pain, bloating, nausea, tiredness) asking participants about the severity of celiac disease symptoms they experience each day. Subjects rate their symptom severity on a 5-point scale (1=none, 2=mild, 3=moderate, 4=severe, 5=very severe). In various embodiments, the celiac disease patient is experiencing one or more significant or severe symptomatic days (based on CDSD) at the start of treatment with IMU-856 or a pharmaceutically acceptable salt or a solvate thereof.\nImprovement in clinical symptoms of gluten exposure: On the first day of gluten challenge, the placebo group (N=12) experienced a marked average increase in symptoms, as assessed by the Celiac Disease Symptom Diary using a 5-point scale of 0.8 for nausea, 0.8 for abdominal pain, and 0.8 diarrhea. In contrast, among the pooled IMU-856 arms (N=26), these average increases were only 0.4 for nausea, 0.5 for abdominal pain and 0.6 for diarrhea."}, "[4]": {"system": "sirtuin 6 protein (SIRT6)", "assay": "SIRT6 protein stabilization"}, "[5]": {"details": "160 mg (N 11), Day 14 to Day 29"}, "[6]": {"details": "160 mg (N 13), Day 13 to Day 14"}, "[7]": {"details": "All Active (N 20), Day 14 to Day 29"}, "[8]": {"details": "All Active (N 26), Day 13 to Day 14"}, "[9]": {"details": "continued treatment during gluten challenge"}}, "note": "“Also recorded” adds a separate entry of the source.", "data": [{"smiles": "Cn1c(COc2cc(C(F)(F)F)ccn2)nnc1[C@H]1CC[C@H](c2cnn([C@H]3CC[C@H](N4CC5(CCO5)C4)CC3)c2)CC1", "note": "[IMU-856, 6-(trans-4-(4-(trans-4-(4-methyl-5-(((4-(trifluoromethyl)pyridin-2-yl)oxy)methyl)-4H-1,2,4-triazol-3-yl)cyclohexyl)-1H-pyrazol-1-yl)cyclohexyl)-1-oxa-6-azaspiro[3.3]heptane]", "values": [{"measurement": "deacetylation of H3K56", "setting": "SIRT6", "result": "prevents the deacetylation"}, {"measurement": "recovery of TEER", "setting": "[1]; following inflammation with IL-6", "result": "significantly accelerates the recovery"}, {"measurement": "recovery of TEER", "setting": "[1]; following inflammation with TNF-α", "result": "significantly accelerates the recovery"}, {"measurement": "claudin-1", "setting": "claudin (Cldn)-1", "result": "normalisation"}, {"measurement": "IMP-related serious or treatment-emergent adverse events", "setting": "[2]; human, in vivo", "result": "no investigational medicinal product (IMP)-related serious or treatment-emergent adverse events"}, {"measurement": "dose-dependency in adverse events", "setting": "[2]; human, in vivo", "result": "nor was there any dose-dependency in adverse events"}, {"measurement": "rates of TEAEs in non-disease related parameters versus placebo", "setting": "[2]; human, in vivo", "result": "comparable between the active treatment groups and placebo"}, {"measurement": "safety and tolerability", "setting": "[2]; human, in vivo", "result": "safe and well-tolerated"}, {"measurement": "dose-limiting toxicities, systematic safety laboratory changes or deaths", "setting": "[2]; whole study", "result": "No dose-limiting toxicities, systematic safety laboratory changes or deaths"}, {"measurement": "relation of serious adverse events to IMU-856", "setting": "[2]; whole study", "result": "unrelated to IMU-856"}, {"measurement": "serious adverse events", "setting": "[2]; whole study", "result": "Two"}, {"measurement": "mean change in plasma citrulline", "setting": "plasma citrulline; 80 mg, baseline to Day 14", "result": "2.4 ± 6.2", "unit": "µmol/L"}, {"measurement": "mean change in plasma citrulline", "setting": "plasma citrulline; 160 mg, baseline to Day 29", "result": "2.2 ± 5.3", "unit": "µmol/L"}, {"measurement": "citrulline levels", "setting": "plasma citrulline; in words", "result": "increased citrulline levels dose proportionally; also recorded: increased in both active treatment arms"}, {"measurement": "mean change in bloating", "setting": "[3]; 80 mg (N 9), Day 14 to Day 29", "result": "−0.4"}, {"measurement": "mean change in tiredness", "setting": "[3]; 80 mg (N 9), Day 14 to Day 29", "result": "−0.1"}, {"measurement": "mean change in bloating", "setting": "[3]; 80 mg (N 13), Day 13 to Day 14", "result": 0.3}, {"measurement": "mean change in tiredness", "setting": "[3]; 80 mg (N 13), Day 13 to Day 14", "result": 0.2}, {"measurement": "mean change in abdominal pain (SD)", "setting": "[3]; 80 mg (N = 13)", "result": "0.5 (0.78)"}, {"measurement": "mean change in diarrhea (SD)", "setting": "[3]; 80 mg (N = 13)", "result": "0.5 (0.97)"}, {"measurement": "mean change in nausea (SD)", "setting": "[3]; 80 mg (N = 13)", "result": "0.2 (0.69)"}, {"measurement": "mean change in bloating", "setting": "[3]; [5]", "result": "−0.5"}, {"measurement": "mean change in tiredness", "setting": "[3]; [5]", "result": "−0.5"}, {"measurement": "mean change in bloating", "setting": "[3]; [6]", "result": 0.5}, {"measurement": "mean change in tiredness", "setting": "[3]; [6]", "result": 0.5}, {"measurement": "mean change in abdominal pain (SD)", "setting": "[3]; 160 mg (N = 13)", "result": "0.4 (0.87)"}, {"measurement": "mean change in diarrhea (SD)", "setting": "[3]; 160 mg (N = 13)", "result": "0.6 (1.12)"}, {"measurement": "mean change in nausea (SD)", "setting": "[3]; 160 mg (N = 13)", "result": "0.7 (1.03)"}, {"measurement": "mean change in bloating", "setting": "[3]; [7]", "result": "−0.5"}, {"measurement": "mean change in tiredness", "setting": "[3]; [7]", "result": "−0.3"}, {"measurement": "mean change in bloating", "setting": "[3]; [8]", "result": 0.4}, {"measurement": "mean change in tiredness", "setting": "[3]; [8]", "result": 0.3}, {"measurement": "gluten-induced symptoms", "setting": "[3]; Part C", "result": "attenuated"}, {"measurement": "symptoms (nausea, abdominal pain or diarrhea)", "setting": "[3]; after first day of gluten challenge (Day 14), versus placebo", "result": "fewer symptoms"}, {"measurement": "patient-reported ability to perform daily activities", "setting": "[3]; [9]", "result": "improvement"}, {"measurement": "recovery from bloating symptoms", "setting": "[3]; [9]", "result": "recover to a higher extent; also recorded: improvement"}, {"measurement": "recovery from tiredness symptoms", "setting": "[3]; [9]", "result": "recover to a higher extent; also recorded: improvement"}, {"measurement": "protection against acute gluten-induced symptoms", "setting": "[3]; first day of gluten challenge", "result": "initial signal of protection against acute gluten-induced symptoms"}, {"measurement": "protection against chronic gluten-induced symptoms", "setting": "[3]; human, in vivo", "result": "initial signal of protection against chronic gluten-induced symptoms"}, {"measurement": "stabilization of sirtuin 6 protein", "setting": "[4]", "result": "stabilizer"}]}]}
